Test results taken from patent publication US10227331B2 (priority 2015, dated 2019).

Legend:
[1] = biological target: IMP-1 (Serratia marcescens, UniProt P52699); experiment: biochemical; type: biochemical; conditions: CCF2-FA substrate, 2 hours at 25° C; read-out: IMP-1 IC50
Outline: (§1)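 Fluorescence assay, CCF2-FA substrate (cephalosporin core linking 7-hydroxycoumarin to fluorescein); inhibitor + MBL + substrate, 2 h, 25° C. IC50 by 4-parameter fit, semi-log plot.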

[2] = biological target: NDM-1 (Klebsiella pneumoniae, UniProt C7C422); experiment: biochemical; type: biochemical; conditions: CCF2-FA substrate, 2 hours at 25° C; read-out: NDM-1 IC50
Chain of NDM-1 (C7C422 whole entry, looked up, species assumed): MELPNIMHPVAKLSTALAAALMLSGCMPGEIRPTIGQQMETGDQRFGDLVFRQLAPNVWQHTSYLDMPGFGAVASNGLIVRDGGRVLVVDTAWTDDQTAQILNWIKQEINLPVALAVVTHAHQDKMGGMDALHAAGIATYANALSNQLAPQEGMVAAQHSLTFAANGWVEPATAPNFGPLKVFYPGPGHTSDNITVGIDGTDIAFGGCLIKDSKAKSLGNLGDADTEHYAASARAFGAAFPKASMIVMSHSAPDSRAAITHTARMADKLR
Outline: as §1

[3] = biological target: VIM-1 (Pseudomonas aeruginosa (strain ATCC 15692 / DSM 22644 / CIP 104116 / JCM 14847 / LMG 12228 / 1C / PRS 101 / PAO1), UniProt A0A0F7KYQ8); experiment: biochemical; conditions: CCF2-FA substrate, 2 hours at 25° C
Outline: as §1

[4] = tested on: Escherichia coli expressing NDM-1 (CLB30005, CLB30016); type: cell-based; conditions: with imipenem 1 μg/ml, 95% inhibition of bacterial growth; for Escherichia coli MITC95: NDM-1 (CLB30016)
Outline: (§2)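 Colonies from overnight 35 °C blood-agar cultures were suspended in saline, diluted 1:100 into 1.1× CAMHB and exposed to test compound with or without imipenem at 1 μg/ml. After 22–24 h at 35 °C, absorbance was read to find the concentration restoring imipenem susceptibility.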

[5] = tested on: Klebsiella pneumoniae expressing VIM-1 (IHMA599644); type: cell-based; conditions: with imipenem 1 μg/ml, 95% inhibition of bacterial growth; for Klebsiella pneumoniae MITC95: VIM-1 (IHMA599644)
Outline: as §2

[6] = tested on: Serratia marcescens expressing IMP-1 (CL5741); type: cell-based; conditions: with imipenem 1 μg/ml, 95% inhibition of bacterial growth; for Serratia marcescens MITC95: IMP-1 (CL5741)
Outline: as §2

[7] = tested on: P. aeruginosa expressing IMP-1, efflux+ (MB9798); type: cell-based, Pseudomonas aeruginosa; conditions: for P. aeruginosa expressing IMP-1, efflux+ (MB9798) MITC95: imipenem at 2 μg/mL, in the presence of a class A, C, D serine β-lactamase inhibitor closely related to relebactam; for Efflux ratio: ratio MITC95 PA_9798/MITC95 PA_9799
Text: (§3) The strain background is Pseudomonas aeruginosa PAO1.

[8] = tested on: P. aeruginosa expressing IMP-1, efflux− (MB9799); experiment: Efflux: concentration of MBL inhibitor which restores susceptibility to imipenem; type: cell-based, Pseudomonas aeruginosa; conditions: imipenem at 2 μg/mL, in the presence of a class A, C, D serine β-lactamase inhibitor closely related to relebactam
Text: as §3

Chain of IMP-1 (P52699 whole entry, looked up, species assumed): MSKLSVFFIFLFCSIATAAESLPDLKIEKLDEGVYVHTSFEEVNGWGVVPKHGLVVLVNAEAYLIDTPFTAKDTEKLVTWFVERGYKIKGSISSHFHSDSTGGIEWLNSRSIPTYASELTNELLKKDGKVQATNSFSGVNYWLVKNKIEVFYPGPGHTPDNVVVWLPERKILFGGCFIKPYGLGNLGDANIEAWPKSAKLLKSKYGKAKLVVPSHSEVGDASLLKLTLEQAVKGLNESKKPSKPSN

SMILES | IC50 [1] [nM] | IC50 [2] [nM] | IC50 [3] [nM] | Escherichia coli expressing NDM-1 (CLB30016) MITC95 [4] [µM] | Klebsiella pneumoniae expressing VIM-1 (IHMA599644) MITC95 [5] [µM] | Serratia marcescens expressing IMP-1 (CL5741) MITC95 [6] [µM] | P. aeruginosa expressing IMP-1, efflux+ (MB9798) MITC95 [7] [µM] | Efflux ratio [7] | P. aeruginosa expressing IMP-1, efflux− (MB9799) MITC95 [8] [µM] | Escherichia coli MITC95 [4] [µM] | Klebsiella pneumoniae MITC95 [5] [µM] | Serratia marcescens MITC95 [6] [µM]
NCCS(=O)(=O)c1ccc(-c2cnc(O)nc2)c(-c2nnn[nH]2)c1S(N)(=O)=O.O=C(O)C(F)(F)F [Example 137, 2-((4-(2-hydroxypyrimidin-5-yl)-2-sulfamoyl-3-(1H-tetrazol-5-yl)phenyl)sulfonyl)ethanaminium 2,2,2-trifluoroacetate] | 32.6 | 16.8 | 23.5 | 0.7813 | 3.125 | 1.563 | 25 | 15.99 | 1.563 |  |  | 
NC[C@H](O)CS(=O)(=O)c1ccc(-c2cccc3[nH]c(N)nc23)c(-c2nn[nH]n2)c1S(N)(=O)=O [Example 282, 3-(2-amino-1H-benzo[d]imidazol-4-yl)-6-((S)-3-amino-2-hydroxypropylsulfonyl)-2-(2H-tetrazol-5-yl)benzenesulfonamide] | 0.777 | 0.157 | 0.28 |  |  |  | 0.418 | 1.00 | 0.418 | 0.3438 | 0.8359 | 0.5156
Nc1c(-c2ccc(S(=O)(=O)C3CNC3)c(S(N)(=O)=O)c2-c2nn[nH]n2)cccc1S(N)(=O)=O [Example 287, 2′-amino-4-(azetidin-3-ylsulfonyl)-2-(2H-tetrazol-5-yl)biphenyl-3,3′-disulfonamide] | 2.92 | 0.386 | 0.607 |  |  |  | 6.25 | 2.00 | 3.125 | 3.125 | 3.125 | 3.125
Nc1nc2cccc(-c3ccc(S(=O)(=O)C4CCN(CCO)CC4)c(S(N)(=O)=O)c3-c3nn[nH]n3)c2[nH]1 [Example 47, 3-(2-amino-3H-benzo[d]imidazol-4-yl)-6-(1-(2-hydroxyethyl)piperidin-4-ylsulfonyl)-2-(2H-tetrazol-5-yl)benzenesulfonamide] | 0.846 | 0.214 | 0.361 | 1.563 | 3.125 | 3.125 | 6.25 | 4.00 | 1.563 |  |  | 
NS(=O)(=O)c1c(S(=O)(=O)C2CNC2)ccc(-c2ccc3ncccc3c2)c1-c1nnn[nH]1.O=C(O)C(F)(F)F [Example 115, 3-((4-(quinolin-6-yl)-2-sulfamoyl-3-(1H-tetrazol-5-yl)phenyl)sulfonyl)azetidin-1-ium 2,2,2-trifluoroacetate] | 0.793 | 0.236 | 0.276 | 3.125 | 3.125 | 3.125 | 12.5 | 8.00 | 1.563 |  |  | 
NCCS(=O)(=O)c1ccc(-c2cccc(C(=O)N[C@H]3CCNC3)c2N)c(-c2nn[nH]n2)c1S(N)(=O)=O [Example 376, (S)-2-Amino-4′-((2-aminoethyl)sulfonyl)-N-(pyrrolidin-3-yl)-3′-sulfamoyl-2′-(2H-tetrazol-5-yl)-[1,1′-biphenyl]-3-carboxamide] | 2.58 | 2.92 | 0.539 |  |  |  | 3.125 | 2.00 | 1.563 | 3.125 | 1.563 | 1.563
C[C@@H](N)CS(=O)(=O)c1ccc(-c2cccc3[nH]c(N)nc23)c(-c2nn[nH]n2)c1S(N)(=O)=O [Example 267, 3-(2-amino-1H-benzo[d]imidazol-4-yl)-6-((R)-2-aminopropylsulfonyl)-2-(2H-tetrazol-5-yl)benzenesulfonamide] | 0.964 | 0.213 | 0.517 |  |  |  | 0.7813 | 1.00 | 0.7813 | 0.3906 | 1.563 | 0.7813
NS(=O)(=O)c1c([S+]([O-])C2CNC2)ccc(-c2cnc3ccccn23)c1-c1nn[nH]n1 (stereo not drawn) [Example 8, 6-(azetidin-3-ylsulfinyl)-3-(imidazo[1,2-a]pyridin-3-yl)-2-(2H-tetrazol-5-yl)benzenesulfonamide] | 37.7 | 2.62 | 6.92 | 3.125 | 12.5 | 12.5 | 50 | 8.00 | 6.25 |  |  | 
NS(=O)(=O)c1c(Sc2ccncc2)ccc(-c2ccc(C3CCNCC3)cc2)c1-c1nn[nH]n1 [Example 242, 4′-(Piperidin-4-yl)-4-(pyridin-4-ylthio)-2-(2H-tetrazol-5-yl)-[1,1′-biphenyl]-3-sulfonamide] | 3.34 | 4.01 | 7.47 | 12.5 | 50 | 6.25 | 50 | 31.99 | 1.563 |  |  | 
